ChEMBL document CHEMBL4627353, “Synthesis of novel dual target inhibitors of PARP and HSP90 and their antitumor activities” (Bioorg Med Chem, 2020)
Activity calls are given as the source filed them. No cut-off for these calls is given here.

Columns and labels:
[1] = tested on: SK-BR-3; assay: Antiproliferative activity against BRCA-proficient human SKBR3 cells after 48 hrs by MTT assay; type: functional, cell-based; details: SK-BR-3, 48 h
[2] = tested on: HCC1937; assay: Antiproliferative activity against BRCA1-deficient human HCC1937 cells after 48 hrs by MTT assay; type: functional, cell-based; details: HCC1937, 48 h
[3] = tested on: MX1; assay: Antiproliferative activity against BRCA1-deficient human MX1 cells after 48 hrs by MTT assay; type: functional, cell-based; details: MX1, 48 h
[4] = tested on: MCF7; assay: Antiproliferative activity against BRCA-proficient human MCF7 cells after 48 hrs by MTT assay; type: functional, cell-based; details: MCF7, 48 h
[5] = tested on: MDA-MB-231; assay: Antiproliferative activity against BRCA-proficient human MDA-MB-231 cells after 48 hrs by MTT assay; type: functional, cell-based; details: MDA-MB-231, 48 h
[6] = tested on: CAPAN-1; assay: Antiproliferative activity against BRCA2-deficient human Capan1 cells after 48 hrs by MTT assay; type: functional, cell-based; details: CAPAN-1, 48 h
[7] = tested on: MCF7; assay: Potency index, ratio of compound IC50 to Olaparib IC50 for antiproliferative activity against human MCF7 cells; type: functional
[8] = tested on: MCF7; assay: Inhibition of PARP in human MCF7 cells assessed as down regulation of PAR at 1 to 100 uM in presence of adriamycin by western blotting analysis; type: cell-based
[9] = target: T1, Heat shock protein HSP90 (Homo sapiens, UniProt P07900+P08238); assay: Inhibition of HSP90 (unknown origin) by fluorescence quenching method; type: protein assay
[10] = target: T1, Heat shock protein HSP90; assay: Binding affinity to HSP90 (unknown origin) by fluorescence quenching method; type: protein assay
[11] = target: T1, Heat shock protein HSP90; assay: Inhibition of HSP90 in human MDA-MB-231 cells assessed as down regulation of BRCA1 protein expression at 1 to 100 uM in presence of adriamycin by western blotting analysis; type: cell-based
[12] = target: T1, Heat shock protein HSP90
Description: Binding affinity to HSP90 (unknown origin) assessed as Stern-Volmer quenching constant by Stern-Volmer plot analysis

[13] = target: T1, Heat shock protein HSP90; remark: listed apart in the source
Description: Binding affinity to HSP90 (unknown origin) assessed as quenching constant by Stern-Volmer plot analysis

[14] = target: T1, Heat shock protein HSP90; remark: listed apart in the source
Description: Binding affinity to HSP90 (unknown origin) by Line weaver-Burk plot analysis

[15] = tested on: HCC1937; assay: Potency index, ratio of compound IC50 to Olaparib IC50 for antiproliferative activity against human HCC1937 cells; type: functional

O=C1/C(=C/c2ccc(Cl)cc2)CN(C(=O)c2cc(Cc3n[nH]c(=O)c4ccccc34)ccc2F)C/C1=C\c1ccc(Cl)cc1
IC50 [1]: > 200 µM
IC50 [2]: 3.84 µM
IC50 [3]: 4.23 µM
IC50 [4]: 1.21 µM
IC50 [5]: 8 µM
IC50 [6]: 1.78 µM

O=C1/C(=C/c2ccc(F)cc2)CN(C(=O)c2cc(Cc3n[nH]c(=O)c4ccccc34)ccc2F)C/C1=C\c1ccc(F)cc1
IC50 [1]: > 200 µM
IC50 [2]: 36.1 µM
IC50 [3]: > 200 µM
IC50 [4]: 173 µM
IC50 [5]: > 200 µM
IC50 [6]: > 200 µM

COc1cc(/C=C2\CN(C(=O)c3cc(Cc4n[nH]c(=O)c5ccccc45)ccc3F)C/C(=C\c3cc(OC)c(OC)c(OC)c3)C2=O)cc(OC)c1OC
IC50 [1]: > 200 µM
IC50 [2]: 65.3 µM
IC50 [3]: 34.6 µM
IC50 [4]: > 200 µM
IC50 [5]: > 200 µM
IC50 [6]: 118 µM

O=C1CCN(C(=O)c2cc(Cc3n[nH]c(=O)c4ccccc34)ccc2F)CC1
IC50 [1]: > 200 µM
IC50 [2]: > 200 µM
IC50 [3]: > 200 µM
IC50 [4]: > 200 µM
IC50 [5]: > 200 µM
IC50 [6]: > 200 µM

O=C1/C(=C/c2ccncc2)CN(C(=O)c2cc(Cc3n[nH]c(=O)c4ccccc34)ccc2F)C/C1=C\c1ccncc1
IC50 [1]: 2.53 µM
IC50 [2]: 2.72 µM
IC50 [3]: 0.1 µM
IC50 [4]: 0.97 µM
Ratio IC50 [7]: 200
inhibition [8]: Active
IC50 [9]: 0.97 µM
IC50 [5]: 4.38 µM
Kd [10]: 39.975 µM
IC50 [6]: 0.202 µM
inhibition [11]: Active

O=C1/C(=C/c2ccccc2F)CN(C(=O)c2cc(Cc3n[nH]c(=O)c4ccccc34)ccc2F)C/C1=C\c1ccccc1F
IC50 [1]: > 200 µM
IC50 [2]: 16.1 µM
IC50 [3]: 3.62 µM
IC50 [4]: 2.05 µM
IC50 [5]: 7.63 µM
IC50 [6]: 2.02 µM

O=C(c1cc(Cc2n[nH]c(=O)c3ccccc23)ccc1F)N1CCN(C(=O)C2CC2)CC1 [OLAPARIB]
IC50 [1]: 232 µM
IC50 [2]: > 200 µM
IC50 [3]: 35.8 µM
IC50 [4]: > 200 µM
IC50 [5]: > 200 µM
IC50 [6]: 83.1 µM

O=C1/C(=C/c2ccc3c(c2)OCO3)CN(C(=O)c2cc(Cc3n[nH]c(=O)c4ccccc34)ccc2F)C/C1=C\c1ccc2c(c1)OCO2
IC50 [1]: > 200 µM
IC50 [2]: 44.7 µM
IC50 [3]: 13.9 µM
IC50 [4]: 25.8 µM
IC50 [5]: 21.1 µM
IC50 [6]: 32 µM

O=C1/C(=C/c2cccc(F)c2)CN(C(=O)c2cc(Cc3n[nH]c(=O)c4ccccc34)ccc2F)C/C1=C\c1cccc(F)c1
IC50 [1]: > 200 µM
IC50 [2]: 10.6 µM
IC50 [3]: 2.39 µM
IC50 [4]: 1.46 µM
IC50 [5]: 5.17 µM
IC50 [6]: 1.68 µM

O=C1/C(=C/c2cccnc2)CN(C(=O)c2cc(Cc3n[nH]c(=O)c4ccccc34)ccc2F)C/C1=C\c1cccnc1
IC50 [1]: 15.9 µM
IC50 [2]: 5.3 µM
IC50 [3]: 2 µM
IC50 [4]: > 200 µM
KSV [12]: 3.58 ×10⁴ L/mol
inhibition [8]: Active
Kq [13]: 4.43 ×10¹² L/mol/s
Ka [14]: 4.89 ×10⁵ L/mol
IC50 [5]: 7.6 µM
Ratio IC50 [15]: 40
Kd [10]: 28.257 µM
IC50 [6]: 82.8 µM

O=C1/C(=C/c2ccccn2)CN(C(=O)c2cc(Cc3n[nH]c(=O)c4ccccc34)ccc2F)C/C1=C\c1ccccn1
IC50 [1]: 2.83 µM
IC50 [2]: 2.88 µM
IC50 [3]: 0.1 µM
IC50 [4]: 1.47 µM
KSV [12]: 3.48 ×10⁴ L/mol
Ratio IC50 [7]: 200
inhibition [8]: Active
Kq [13]: 4.32 ×10¹² L/mol/s
Ka [14]: 4.88 ×10⁵ L/mol
IC50 [5]: 0.75 µM
Kd [10]: 29.569 µM
IC50 [6]: 37.3 µM

O=C1/C(=C/c2ccccc2O)CN(C(=O)c2cc(Cc3n[nH]c(=O)c4ccccc34)ccc2F)C/C1=C\c1ccccc1O
IC50 [1]: > 200 µM
IC50 [2]: > 200 µM
IC50 [3]: 29.2 µM
IC50 [4]: > 200 µM
IC50 [5]: > 200 µM
IC50 [6]: > 200 µM
